From ChEMBL document CHEMBL1201862, “PubChem BioAssay data set” (2004)
Activity calls are given as the source filed them.

Columns and labels:
[1] = fluconazole-exposed Candida albicans growth modulators – fluorescence, retest, confirmation (AID 2467); type: functional, cell-based
[2] = target: T1, Serine/threonine-protein phosphatase (Candida dubliniensis (strain CD36 / CBS 7987 / NCPF 3949 / NRRLY-17841) (Yeast), UniProt B9W6M3); assay: blockers of CaCl2-induced CDRE-lacZ signaling – S. cerevisiae, luminescence, secondary, dose response (AID 2388); type: functional, cell-based;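 further: yeast reporter cells carrying a calcineurin-responsive lacZ construct stimulated with calcium chloride; luminescent beta-galactosidase reporter signal in whole cells rather than isolated phosphatase activity; potency for inhibition where a drop in reporter signal means calcineurin blockade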
T1 sequence (B9W6M3 whole entry): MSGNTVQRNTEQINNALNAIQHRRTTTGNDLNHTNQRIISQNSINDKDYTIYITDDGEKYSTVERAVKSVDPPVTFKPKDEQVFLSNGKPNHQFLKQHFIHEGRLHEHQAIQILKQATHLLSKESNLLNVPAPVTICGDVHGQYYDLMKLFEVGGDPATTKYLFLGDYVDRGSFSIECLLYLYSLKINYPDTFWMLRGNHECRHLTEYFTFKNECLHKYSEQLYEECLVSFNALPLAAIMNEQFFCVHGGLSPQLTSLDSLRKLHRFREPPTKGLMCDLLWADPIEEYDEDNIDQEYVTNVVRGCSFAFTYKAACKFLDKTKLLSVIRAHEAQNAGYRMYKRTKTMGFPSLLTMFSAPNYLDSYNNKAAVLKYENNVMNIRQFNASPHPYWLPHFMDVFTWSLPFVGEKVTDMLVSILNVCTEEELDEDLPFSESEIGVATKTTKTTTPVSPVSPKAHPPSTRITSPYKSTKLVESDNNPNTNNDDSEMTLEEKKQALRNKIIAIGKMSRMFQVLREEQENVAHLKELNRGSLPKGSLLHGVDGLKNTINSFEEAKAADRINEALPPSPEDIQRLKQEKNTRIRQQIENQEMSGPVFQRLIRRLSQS

[3] = NIH-3T3 fibroblast cytotoxicity, dose response, cytotoxicity control, cell-based, fluorescence, Alamar Blue, secondary assay (AID 2327); type: functional;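 further: NIH-3T3 mouse fibroblasts cultured with fluconazole at 8 µg/mL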
[4] = target: ATP-dependent molecular chaperone HSP82 (Candida albicans (strain WO-1) (Yeast), UniProt C4YTQ8); assay: steroid-induced GRE reporter decrease in yeast – S. cerevisiae, luminescence, Hsp90 inhibitor project, dose response (AID 2400); type: functional, cell-based;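 further: beta-galactosidase luminescence from glucocorticoid response element reporter as proxy for Hsp90 function; inhibitor potency where signal loss means Hsp90 inhibition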
Chain of ATP-dependent molecular chaperone HSP82 (C4YTQ8 whole entry): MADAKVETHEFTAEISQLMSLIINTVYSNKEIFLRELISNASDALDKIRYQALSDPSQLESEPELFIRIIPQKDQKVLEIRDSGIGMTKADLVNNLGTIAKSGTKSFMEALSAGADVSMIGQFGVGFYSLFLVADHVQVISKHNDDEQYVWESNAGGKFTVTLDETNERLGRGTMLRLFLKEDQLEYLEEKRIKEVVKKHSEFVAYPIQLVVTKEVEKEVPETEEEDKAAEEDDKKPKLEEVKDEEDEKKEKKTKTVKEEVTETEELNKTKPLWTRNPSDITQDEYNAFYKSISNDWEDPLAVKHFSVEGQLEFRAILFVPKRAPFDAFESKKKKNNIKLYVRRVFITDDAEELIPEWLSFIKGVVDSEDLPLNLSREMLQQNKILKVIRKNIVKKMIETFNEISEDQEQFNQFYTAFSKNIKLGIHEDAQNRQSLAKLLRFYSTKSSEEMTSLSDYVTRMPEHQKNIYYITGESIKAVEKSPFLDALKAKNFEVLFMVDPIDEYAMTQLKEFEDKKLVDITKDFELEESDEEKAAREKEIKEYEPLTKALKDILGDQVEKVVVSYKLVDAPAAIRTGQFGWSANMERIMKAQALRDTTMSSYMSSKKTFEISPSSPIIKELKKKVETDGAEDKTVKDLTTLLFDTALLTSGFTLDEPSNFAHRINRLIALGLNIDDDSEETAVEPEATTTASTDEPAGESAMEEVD

[5] = target: T2, Apoptotic protease-activating factor 1 (Homo sapiens, UniProt O14727); type: functional
T2 sequence (O14727 whole entry): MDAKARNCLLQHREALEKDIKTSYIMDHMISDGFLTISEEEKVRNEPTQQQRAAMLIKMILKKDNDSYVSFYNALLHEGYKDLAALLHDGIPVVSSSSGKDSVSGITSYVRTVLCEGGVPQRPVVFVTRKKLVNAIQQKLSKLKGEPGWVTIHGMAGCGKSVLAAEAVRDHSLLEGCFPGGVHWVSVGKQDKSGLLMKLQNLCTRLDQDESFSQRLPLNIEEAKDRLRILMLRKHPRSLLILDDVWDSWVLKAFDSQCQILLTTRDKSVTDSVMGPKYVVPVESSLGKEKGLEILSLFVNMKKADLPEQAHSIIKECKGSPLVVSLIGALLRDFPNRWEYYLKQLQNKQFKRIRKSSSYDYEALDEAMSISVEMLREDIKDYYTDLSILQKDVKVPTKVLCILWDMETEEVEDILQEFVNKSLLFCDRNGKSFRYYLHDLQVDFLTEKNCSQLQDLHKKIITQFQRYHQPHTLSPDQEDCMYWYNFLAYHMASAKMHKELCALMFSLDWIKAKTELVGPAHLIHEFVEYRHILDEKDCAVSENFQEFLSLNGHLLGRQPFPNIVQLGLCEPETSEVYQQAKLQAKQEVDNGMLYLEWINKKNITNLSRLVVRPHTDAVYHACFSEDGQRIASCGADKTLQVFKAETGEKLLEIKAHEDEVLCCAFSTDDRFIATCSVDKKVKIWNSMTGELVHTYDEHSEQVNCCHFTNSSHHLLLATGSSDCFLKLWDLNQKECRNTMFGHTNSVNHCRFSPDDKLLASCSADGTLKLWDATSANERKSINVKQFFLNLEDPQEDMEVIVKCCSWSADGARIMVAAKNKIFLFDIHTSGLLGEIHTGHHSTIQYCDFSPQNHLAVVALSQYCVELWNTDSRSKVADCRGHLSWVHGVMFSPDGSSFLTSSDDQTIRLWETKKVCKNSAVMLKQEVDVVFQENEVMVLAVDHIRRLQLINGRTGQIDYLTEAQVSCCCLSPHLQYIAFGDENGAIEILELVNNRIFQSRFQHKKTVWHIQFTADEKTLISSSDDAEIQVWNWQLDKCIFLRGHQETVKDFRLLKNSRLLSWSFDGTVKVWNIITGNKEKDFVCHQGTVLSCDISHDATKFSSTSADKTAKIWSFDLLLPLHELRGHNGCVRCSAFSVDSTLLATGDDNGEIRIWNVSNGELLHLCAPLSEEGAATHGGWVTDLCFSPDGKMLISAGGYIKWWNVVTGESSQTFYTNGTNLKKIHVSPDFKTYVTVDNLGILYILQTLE

[6] = target: T3, Replicative DNA helicase DnaB (Mycobacterium tuberculosis, UniProt P9WMR3); assay: DnaB intein splicing inhibitors, dose response, biochemical, cell-free fluorescence (AID 449749); type: functional
T3 sequence (P9WMR3 whole entry): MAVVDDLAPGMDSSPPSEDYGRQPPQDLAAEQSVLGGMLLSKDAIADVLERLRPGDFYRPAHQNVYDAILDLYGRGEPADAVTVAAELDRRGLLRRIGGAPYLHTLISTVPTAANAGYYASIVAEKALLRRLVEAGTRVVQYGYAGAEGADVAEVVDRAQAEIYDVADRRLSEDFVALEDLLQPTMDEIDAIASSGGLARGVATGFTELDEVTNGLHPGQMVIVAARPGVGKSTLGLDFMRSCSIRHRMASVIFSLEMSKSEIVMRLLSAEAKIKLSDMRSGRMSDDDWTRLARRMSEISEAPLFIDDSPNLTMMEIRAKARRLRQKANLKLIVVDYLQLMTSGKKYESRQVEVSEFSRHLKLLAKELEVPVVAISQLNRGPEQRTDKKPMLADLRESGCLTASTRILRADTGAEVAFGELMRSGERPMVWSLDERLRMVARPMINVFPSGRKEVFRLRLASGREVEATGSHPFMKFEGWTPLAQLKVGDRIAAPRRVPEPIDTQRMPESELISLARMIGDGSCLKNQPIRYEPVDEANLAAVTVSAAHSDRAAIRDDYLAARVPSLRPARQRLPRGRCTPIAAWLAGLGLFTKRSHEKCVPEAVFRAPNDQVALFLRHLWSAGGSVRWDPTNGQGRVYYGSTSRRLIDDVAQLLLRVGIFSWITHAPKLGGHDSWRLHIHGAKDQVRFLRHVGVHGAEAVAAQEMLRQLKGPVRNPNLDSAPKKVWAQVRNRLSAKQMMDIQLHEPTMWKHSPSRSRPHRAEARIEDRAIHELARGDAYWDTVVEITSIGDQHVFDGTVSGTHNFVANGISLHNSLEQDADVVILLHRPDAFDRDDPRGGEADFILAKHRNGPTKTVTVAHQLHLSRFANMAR

[7] = target: T4, Microphthalmia-associated transcription factor (Homo sapiens, UniProt O75030); assay: reducers of TRPM1 reporter luminescence, concentration series – cell-based, SK-MEL-5, cherry-picked, set 3, MITF inhibitor project, dose response (AID 493073); type: functional;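 further: SK-MEL-5 melanoma cells with luciferase driven by the MITF target TRPM1 promoter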
T4 sequence (O75030 whole entry): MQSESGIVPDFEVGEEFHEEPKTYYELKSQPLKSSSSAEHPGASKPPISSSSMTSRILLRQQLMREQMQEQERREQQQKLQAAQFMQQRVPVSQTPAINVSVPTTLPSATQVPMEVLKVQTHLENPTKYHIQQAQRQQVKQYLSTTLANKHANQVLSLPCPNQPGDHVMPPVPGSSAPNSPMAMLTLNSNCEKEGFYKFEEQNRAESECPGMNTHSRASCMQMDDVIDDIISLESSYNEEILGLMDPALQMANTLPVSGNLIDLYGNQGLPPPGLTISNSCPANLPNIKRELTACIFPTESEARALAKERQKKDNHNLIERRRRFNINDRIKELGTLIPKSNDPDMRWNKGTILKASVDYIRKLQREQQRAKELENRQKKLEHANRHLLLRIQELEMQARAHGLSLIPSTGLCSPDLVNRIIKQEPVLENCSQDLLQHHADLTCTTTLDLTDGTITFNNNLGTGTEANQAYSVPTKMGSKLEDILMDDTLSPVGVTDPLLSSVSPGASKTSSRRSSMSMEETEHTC

INS1 = assay: INS-1E survival protection against cytokine death – cell-based, luminescence, retest, dose response (AID 449756); type: functional; details: Rattus norvegicus;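 further: cell death triggered by IL-1 beta plus TNF-alpha plus IFN-gamma mixture; protective hits raise ATP signal compared with cytokine alone wells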
Protein RecA = target: T5, Protein RecA (Mycobacterium tuberculosis, UniProt P9WHJ3); assay: Fluorescence Cell-Free Homogeneous Dose Retest to Identify Inhibitors of RecA-Intein Splicing Activity. [Related pubchem assays (depositor defined):AID2097, AID2223, AID489010, AID492950]; type: functional
T5 sequence (P9WHJ3 whole entry): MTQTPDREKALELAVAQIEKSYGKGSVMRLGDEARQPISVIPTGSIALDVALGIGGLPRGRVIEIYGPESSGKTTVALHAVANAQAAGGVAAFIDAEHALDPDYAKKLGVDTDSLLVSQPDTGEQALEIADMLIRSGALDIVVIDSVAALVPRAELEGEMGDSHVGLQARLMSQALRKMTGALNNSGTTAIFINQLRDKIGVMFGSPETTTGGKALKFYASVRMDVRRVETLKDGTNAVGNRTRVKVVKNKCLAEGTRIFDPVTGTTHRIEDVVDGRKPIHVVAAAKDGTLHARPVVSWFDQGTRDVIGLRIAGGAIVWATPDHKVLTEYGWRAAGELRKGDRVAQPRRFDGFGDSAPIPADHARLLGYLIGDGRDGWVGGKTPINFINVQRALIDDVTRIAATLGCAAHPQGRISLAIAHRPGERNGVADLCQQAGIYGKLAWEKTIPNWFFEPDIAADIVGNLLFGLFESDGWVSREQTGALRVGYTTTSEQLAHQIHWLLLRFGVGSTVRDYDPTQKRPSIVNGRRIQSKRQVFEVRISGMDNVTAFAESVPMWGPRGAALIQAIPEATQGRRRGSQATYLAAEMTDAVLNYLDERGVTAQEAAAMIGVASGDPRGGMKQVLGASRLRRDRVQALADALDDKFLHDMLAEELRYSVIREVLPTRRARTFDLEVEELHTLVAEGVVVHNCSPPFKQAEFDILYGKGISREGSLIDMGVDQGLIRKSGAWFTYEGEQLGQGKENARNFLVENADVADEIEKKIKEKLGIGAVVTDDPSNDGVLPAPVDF

[8] = target: T6, Endoribonuclease toxin MazF (Escherichia coli K-12, UniProt P0AE70); assay: activation of MazEF endoribonuclease cleavage – biochemical, fluorescence, single-stranded RNA substrate, uHTS hits, dose response (AID 588481); type: functional
T6 sequence (P0AE70 whole entry): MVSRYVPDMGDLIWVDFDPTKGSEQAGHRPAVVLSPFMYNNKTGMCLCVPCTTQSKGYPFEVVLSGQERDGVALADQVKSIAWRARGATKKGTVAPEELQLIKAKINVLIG

[9] = target: T6, Endoribonuclease toxin MazF; assay: substrate-only fluorescence increase artefacts – biochemical, single-stranded RNase substrate, counter-screen for MazEF activator project, dose response (AID 588502); type: functional

CCc1nnc(NC(=O)CN2CCN(c3nc(-c4ccccc4)cs3)CC2)s1
EC50 [1]: 1.18 µM (active) | EC50 [2]: > 180 µM (inactive) | EC50 [3]: > 150 µM (inconclusive) | EC50 [4]: > 150 µM (inactive)

O=C(NC1=C(Nc2ccc(Cl)cc2)C(=O)c2ccccc2C1=O)c1ccccc1
IC50 [5]: 39.7 µM (active) | AC50 [6]: 10.4 µM (active) | AC50 [7]: 0.93 µM (active) | AC50 (INS1): 6.9 µM (active) | EC50 (Protein RecA): 6.55 µM (active)

COC(=O)C1=C(C)N(Cc2ccco2)C(=O)/C1=C\c1ccc(N(C)C)cc1
EC50 [8]: 10.7 µM (active) | EC50 [9]: 37.5 µM (inactive)

CCOc1cc(CNc2ccc3c[nH]nc3c2)ccc1OC
IC50 [5]: 25.2 µM (active) | AC50 [6]: > 380 µM (inactive) | EC50 (Protein RecA): 7.37 µM (active)

CCN=C(S)NNC(=O)c1cc(-c2ccccc2C)nc2ccccc12
EC50 [1]: 0.931 µM (active) | EC50 [2]: > 180 µM (inactive) | EC50 [3]: > 160 µM (inactive) | EC50 [4]: > 160 µM (inactive)
